Reference: ChEMBL document CHEMBL1212718, “Persistent signaling induced by FTY720-phosphate is mediated by internalized S1P1 receptors” (Nat Chem Biol, 2009)
Activity calls are given as the source filed them.

Key:
[1] = target: Sphingosine 1-phosphate receptor 1 (Homo sapiens) (UniProt P21453); assay: Induction of human S1P1 receptor internalization expressed in CHO cells at 1 uM after 60 mins; format: cell-based
[2] = target: Sphingosine 1-phosphate receptor 1 (Homo sapiens) (UniProt P21453); settings: CHO, 1 uM
Description: Agonist activity at human S1P1 receptor expressed in CHO cells assessed as inhibition of forskolin-stimulated cAMP formation at 1 uM after 20 mins

[3] = target: Sphingosine 1-phosphate receptor 1 (Homo sapiens) (UniProt P21453); settings: CHO, 1 uM; remark: listed apart in the source
Description: Agonist activity at human S1P1 receptor expressed in CHO cells assessed as inhibition of forskolin-stimulated cAMP formation at 1 uM after 60 mins

[4] = target: Sphingosine 1-phosphate receptor 1 (Homo sapiens) (UniProt P21453); assay: Induction of human S1P1 receptor internalization expressed in CHO cells pretreated at 1 uM for 1 hr measured after 5 hrs washout period; format: cell-based
[5] = target: Sphingosine 1-phosphate receptor 1 (Homo sapiens) (UniProt P21453); assay: Agonist activity at human S1P1 receptor expressed in CHO cells assessed as inhibition of forskolin-stimulated cAMP formation pretreated at 1 uM for 1 hr measured after 5 hrs washout peroid; format: functional, cell-based

Chain of Sphingosine 1-phosphate receptor 1 (Homo sapiens) (P21453 whole entry): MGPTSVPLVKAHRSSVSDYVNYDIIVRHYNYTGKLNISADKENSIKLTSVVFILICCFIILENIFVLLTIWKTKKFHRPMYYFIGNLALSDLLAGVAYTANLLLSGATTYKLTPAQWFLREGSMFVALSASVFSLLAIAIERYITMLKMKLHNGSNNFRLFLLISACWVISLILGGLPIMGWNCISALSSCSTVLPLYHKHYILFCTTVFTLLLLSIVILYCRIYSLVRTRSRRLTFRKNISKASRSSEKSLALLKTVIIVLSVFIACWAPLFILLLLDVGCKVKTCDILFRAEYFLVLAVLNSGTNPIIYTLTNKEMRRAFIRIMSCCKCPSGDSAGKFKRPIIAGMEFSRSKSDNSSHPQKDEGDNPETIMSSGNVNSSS

CCCCCCCCCCCCC/C=C/[C@@H](O)[C@@H](N)COP(=O)(O)O
active: Activity [1] | inhibition [2] | inhibition [3] | Activity [4] | inhibition [5]
